Experimental findings from patent US9289398B2, “Methods for the production of functional protein from DNA having a nonsense mutation and the treatment of disorders associated therewith” (PTC Therapeutics, Inc., priority 2006, dated 2016) are described below.

Format in all cases: in vivo, human
Series [1] can be described thus: Pharmacokinetics, DMD Phase 2 interim analysis. The note with it: for Cmin: DMD patients, 4, 4, 8 mg/kg. As for the experimental part:
(§1) 3-[5-(2-Fluoro-phenyl)-[1,2,4]oxadiazol-3-yl]-benzoic acid is provided in a formulation described herein. Treatment is administered over 28 days for each treatment cohort. An initial cohort of patients are treated daily for 28 days with 3-[5-(2-fluoro-phenyl)-[1,2,4]oxadiazol-3-yl]-benzoic acid at a given dose level (e.g., 4-, 4-, and 8-mg/kg) TID. If the initial patients tolerate the drug, then a second cohort of patients receives 3-[5-(2-fluoro-phenyl)-[1,2,4]oxadiazol-3-yl]-benzoic acid at a higher dose level (e.g., 10-, 10-, and 20-mg/kg) TID. Thus, each patient receives a total of 84 doses of 3-[5-(2-fluoro-phenyl)-[1,2,4]oxadiazol-3-yl]-benzoic acid. After the end of 28 days of treatment, each patient is followed for an additional 28 days without treatment.
At each dose level, it is recommended that 3-[5-(2-fluoro-phenyl)-[1,2,4]oxadiazol-3-yl]-benzoic acid be taken TID at 6-, 6-, and 12-hour (±˜30 minutes) intervals. Ideally each dose is taken within ˜30 minutes after a meal (e.g., ˜7:00 AM after breakfast, ˜1:00 PM after lunch, and ˜7:00 PM after dinner). While it is realized that variations in dosing schedule may occur in the outpatient setting, it is recommended that the prescribed regimen (including dosing intervals and the relationship of dosing to meals) be followed closely on the days of PK sample collection. Clinical endpoints are evaluated using the procedures set forth above.
Six patients were administered 3-[5-(2-fluoro-phenyl)-[1,2,4]oxadiazol-3-yl]-benzoic acid TID in a regimen consisting of 4 mg/kg with breakfast, 4 mg/kg with lunch, and 8 mg/kg with supper, for a total daily dose of 16 mg/kg. All patients were ambulatory, but had characteristic signs and symptoms of DMD, including some degree of muscle dysfunction and elevated serum CK concentrations. […] These adverse events included diarrhea in 1 patient; abdominal pain in 1 patient; and flatulence in 2 patients. […] Treatment compliance was good, with patients taking >95% of the intended total drug treatment for 28 days at the lower dose level. […]

Series [2] can be described thus: Body weight, CF Phase 2 study. The source says: 3-[5-(2-Fluoro-phenyl)-[1,2,4]oxadiazol-3-yl]-benzoic acid was provided in a formulation described herein.
Statistically significant results and positive trends for secondary endpoints were also observed. In particular, although the trials were not been powered to detect statistical significant changes in secondary endpoints, statistically significant improvements from study entry to the end of the higher-dose treatment cycle in the patients' mean FEV1, FVC and weight were observed.

A further series deals with serum CK. Kind of series: Serum CK levels, DMD Phase 2. Particulars: boys with nonsense-mutation-mediated DMD, 28 days. How it is done:
Serum CK activity is assessed using a commercially available NADH-linked kinetic assay (Diagnostic Chemicals Ltd., Oxford, Conn.). Serum CK levels are measured prior to treatment, on day 1 (prior to first dose), day 7, day 14, day 21, and day 27 during the treatment period, and on day 42 and day 56 after treatment. Serum CK is increased in Duchenne muscular dystrophy and therefore is a readily measurable diagnostic marker for the disease and may serve as a potential biomarker for the pharmacological activity of the drug (Mendell et al., 1989, New Eng. J. Med. 320(24):1592-1597).
3-[5-(2-fluoro-phenyl)-[1,2,4]oxadiazol-3-yl]-benzoic acid was administered orally for 28 days at dose levels of 4, 4, 8 mg/kg (low dose); 10, 10, 20 mg/kg (mid dose); and 20, 20, 40 mg/kg (high dose) after breakfast, lunch, and dinner, respectively. 26 boys (ages: 5-13 years; stop codons: 15 UGA, 6 UAG, 5 UAA; baseline serum CK: 8,645-49,500 IU; steroid use: 19/26) completed 3-[5-(2-fluoro-phenyl)-[1,2,4]oxadiazol-3-yl]-benzoic acid at the low (n=6) or mid (n=20) dose levels. […] Compliance was >98% for both dose levels. Day 1 and Day 28 PK indicate stable plasma exposures over time; however, exposures were lower than in 3-[5-(2-fluoro-phenyl)-[1,2,4]oxadiazol-3-yl]-benzoic acid-treated healthy adult volunteers and cystic fibrosis patients. […]

A short description of series [3]: Muscle strength (myometry) and timed function tests, DMD Phase 2. The note with it: within the 28 days of treatment. How it is done: Upper and lower extremity myometry are performed using a hand-held myometer following standardized procedures (Beenakker, 2001, Neuromuscul. Disord. 11(5):441-6; Hyde, 2001, Neuromuscul. Disord 11(2):165-70). It is recommended (depending on the subject's baseline functional status) that evaluated muscle groups include hip abductors, knee extensors, elbow flexors and extensors, and hand grip. Bilateral assessments can be done, and three measurements can be recorded from each muscle group on each side. These parameters are monitored prior to treatment, on the second to last day of treatment, and during a follow-up period after treatment. During the pre-treatment and treatment periods, the myometry procedures are performed prior to the muscle biopsy.
Timed function tests include time taken to stand from a supine position, time taken to walk 10 meters, and time taken to climb 4 standard-sized stairs (Mendell, 1989, N. Engl. J. Med. 320(24):1592-7; Griggs, 1991, Arch. Neurol. 48(4):383-8). These parameters are monitored prior to treatment, on the second to last day of treatment, and during a follow-up period after treatment. During the pre-treatment and treatment periods, the timed function tests are performed prior to the muscle biopsy. […]

The nature of series [4]: Safety and compliance, additional DMD Phase 2 study (26 boys). How it is done:
An additional Phase 2 study was carried out as follows to evaluate 3-[5-(2-fluoro-phenyl)-[1,2,4]oxadiazol-3-yl]-benzoic acid safety, compliance, PK, effects on full-length muscle dystrophin protein expression, and clinical activity in patients with nonsense-mutation-mediated DMD.
(§2) 3-[5-(2-fluoro-phenyl)-[1,2,4]oxadiazol-3-yl]-benzoic acid was administered orally for 28 days at dose levels of 4, 4, 8 mg/kg (low dose); 10, 10, 20 mg/kg (mid dose); and 20, 20, 40 mg/kg (high dose) after breakfast, lunch, and dinner, respectively. 26 boys (ages: 5-13 years; stop codons: 15 UGA, 6 UAG, 5 UAA; baseline serum CK: 8,645-49,500 IU; steroid use: 19/26) completed 3-[5-(2-fluoro-phenyl)-[1,2,4]oxadiazol-3-yl]-benzoic acid at the low (n=6) or mid (n=20) dose levels. […] Compliance was >98% for both dose levels. Day 1 and Day 28 PK indicate stable plasma exposures over time; however, exposures were lower than in 3-[5-(2-fluoro-phenyl)-[1,2,4]oxadiazol-3-yl]-benzoic acid-treated healthy adult volunteers and cystic fibrosis patients. […] Relative to baseline, post-treatment increases in in vivo dystrophin expression occurred in 4/6 (67%) (90% CI 27-94%) and 10/20 (50%) (90% C1-30-70%) boys at low and mid doses, respectively.

A short description of series [5]: Safety, tolerability and compliance, DMD Phase 2 interim (6 patients). As for the experimental part:
as §1
Six patients were administered 3-[5-(2-fluoro-phenyl)-[1,2,4]oxadiazol-3-yl]-benzoic acid TID in a regimen consisting of 4 mg/kg with breakfast, 4 mg/kg with lunch, and 8 mg/kg with supper, for a total daily dose of 16 mg/kg. All patients were ambulatory, but had characteristic signs and symptoms of DMD, including some degree of muscle dysfunction and elevated serum CK concentrations. […] These adverse events included diarrhea in 1 patient; abdominal pain in 1 patient; and flatulence in 2 patients. […] Treatment compliance was good, with patients taking >95% of the intended total drug treatment for 28 days at the lower dose level.

The nature of series [6]: Plasma exposure, additional DMD Phase 2 study. How it is done: as §2
3-[5-(2-fluoro-phenyl)[1,2,4]oxadiazol-3-yl]-benzoic acid safely induces full-length dystrophin expression in vitro and in vivo and decreases serum CK levels in boys with nonsense-mutation-mediated DMD. […] Evaluation at the high dose level in 12 additional boys is ongoing.

The mark [7] stands for this setting: 6 DMD patients, 4, 4, 8 mg/kg TID.
Where [8] appears, read: of 6 DMD patients, 4, 4, 8 mg/kg TID.

Molecules are shown by their SMILES.

In the case of `O=C(O)c1cccc(-c2noc(-c3ccccc3F)n2)c1` [3-[5-(2-fluoro-phenyl)-[1,2,4]oxadiazol-3-yl]-benzoic acid], the “Drug accumulation / induction of metabolism” value in series [1] (27-day treatment interval between sampling periods) is “neither evidence of drug accumulation nor evidence of decreased drug levels due to the induction of metabolism”. In addition, the Cmin in series [1] (Day 1, N = 6, mean) worked out at 500 ng/mL. Also, the Cmin in series [1] (Day 27, N = 6, mean) came to 600 ng/mL. Also, the “Weight, End of Higher Dose Treatment” value in series [2] (study entry 58.3 kg) is given as 59.0 kg. In addition, the “Weight, Change” value in series [2] (study entry to end of higher dose treatment) is given as 0.7 kg. In addition, the “Serum CK levels during administration” value with serum CK is listed as “decreased significantly”. Moreover, the “Changes in muscle strength and timed functions” value in series [3] is “small and not significant”. Besides, the “Severity of adverse events and laboratory abnormalities” value in series [4] (26 boys, low (n=6) or mid (n=20) dose, 28 days oral) is reported as “mild-moderate”. Besides, in series [4] (low 4, 4, 8 mg/kg versus mid 10, 10, 20 mg/kg), the “Dose relation of adverse events and laboratory abnormalities” value is “no dose-related changes in frequency or severity”. In series [5] (6 DMD patients), the “Discontinuation of treatment due to an adverse event” value is recorded as “No patient discontinued treatment”. Moreover, in series [5] (setting [7]), the “Physical examinations, vital sign measurements, electrocardiograms” value was “no safety concerns” and the “Serum liver enzymes, bilirubin, creatinine, blood urea nitrogen” value was “No clinically significant elevations”. The “Serious drug-related adverse events” value in series [5] (6 DMD patients, 4, 4, 8 mg/kg TID, 28 days) was “No serious drug-related adverse events”. Also, the “Severity of potentially drug-related adverse events” value in series [5] (6 DMD patients, 4, 4, 8 mg/kg TID, preliminary) is on record as “mild”. In addition, in series [5] (setting [8]), the “Abdominal pain, number of patients” value is given as 1; the “Diarrhea, number of patients” value amounted to 1; the “Flatulence, number of patients” value worked out at 2. Moreover, the “Plasma exposures over time” value in series [6] (Day 1 and Day 28 PK) is “stable”. Further, in series [6] (boys with DMD), the “Plasma exposures relative to treated healthy adult volunteers and cystic fibrosis patients” value is on record as “lower”. The “Plasma exposures relative to those associated with maximal preclinical activity” value in series [6] (low and mid dose levels) is listed as “did not achieve plasma exposures associated with maximal preclinical activity”.
